Results from patent US11135234B2, “Effective aminoglycoside antibiotic for multidrug-resistant bacteria” (MICROBIAL CHEMISTRY RESEARCH FOUNDATION, priority 2015, dated 2021).
≈ marks a conversion by molar mass, not a printed value.

Key:
[1] = system: K. pneumoniae ATCC BAA-1705; experiment: MIC, agar plate dilution method, K. pneumoniae ATCC BAA-1705; type: cell-based, Klebsiella pneumoniae; settings: for minimal inhibitory concentration (MIC): K. pneumoniae ATCC BAA-1705, KPC-producing strain; for MIC: Klebsiella pneumoniae, ATCCBAA1705, K. pneumoniae ATCC BAA-1705, KPC-producing strain, read-out: minimal inhibitory concentration (MIC)
Outline: (§1)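 Strains were tested on agar plates containing diluted compound, and the MIC (μg/mL) was recorded according to the Japan Society of Chemotherapy protocol.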

S. marcescens GN6944 = experiment: MIC, agar plate dilution method, S. marcescens GN6944; type: cell-based, Serratia marcescens; settings: S. marcescens GN6944, GM-resistant; for MIC: Serratia marcescens, read-out: minimal inhibitory concentration (MIC)
Outline: as §1

P. aeruginosa MSC01035 = experiment: MIC, agar plate dilution method, P. aeruginosa MSC01035; type: cell-based, Pseudomonas aeruginosa; settings: P. aeruginosa MSC01035, ABK-resistant; for MIC: Pseudomonas aeruginosa, read-out: minimal inhibitory concentration (MIC)
Outline: as §1

E. faecium ATCC19434 = experiment: MIC, agar plate dilution method, E. faecium ATCC19434; type: cell-based, Enterococcus faecium; settings: for minimal inhibitory concentration (MIC): E. faecium ATCC19434; for MIC: Enterococcus faecium, ATCC19434, E. faecium ATCC19434, read-out: minimal inhibitory concentration (MIC)
Outline: as §1

[2] = system: K. pneumoniae ATCC BAA-2146; experiment: MIC, agar plate dilution method, K. pneumoniae ATCC BAA-2146; type: cell-based, Klebsiella pneumoniae; settings: for minimal inhibitory concentration (MIC): K. pneumoniae ATCC BAA-2146, NDM-producing strain; for MIC: Klebsiella pneumoniae, ATCCBAA2146, K. pneumoniae ATCC BAA-2146, NDM-producing strain, read-out: minimal inhibitory concentration (MIC)
Outline: as §1

P. aeruginosa PAO1/GN315 = experiment: MIC, agar plate dilution method, P. aeruginosa PAO1/GN315; type: cell-based, Pseudomonas aeruginosa; settings: for minimal inhibitory concentration (MIC): P. aeruginosa PAO1/GN315, AMK-resistant; for MIC: Pseudomonas aeruginosa, read-out: minimal inhibitory concentration (MIC), P. aeruginosa PAO1/GN315, AMK-resistant
Outline: as §1

S. aureus MF490 = experiment: MIC, agar plate dilution method, S. aureus MF490; type: cell-based, Staphylococcus aureus; settings: for minimal inhibitory concentration (MIC): S. aureus MF490, MRSA; for MIC: Staphylococcus aureus, MRSA, read-out: minimal inhibitory concentration (MIC)
Outline: as §1

[3] = system: A. baumannii ATCC BAA-1710; experiment: MIC, agar plate dilution method, A. baumannii ATCC BAA-1710; type: cell-based, Acinetobacter baumannii; settings: for minimal inhibitory concentration (MIC): A. baumannii ATCC BAA-1710, MDRA; for MIC: Acinetobacter baumannii, ATCCBAA1710, A. baumannii ATCC BAA-1710, MDRA, read-out: minimal inhibitory concentration (MIC)
Outline: as §1

S. aureus RN4220 = experiment: MIC, agar plate dilution method, S. aureus RN4220; type: cell-based, Staphylococcus aureus; settings: for minimal inhibitory concentration (MIC): S. aureus RN4220, Sensitive bacterium; for MIC: Staphylococcus aureus, RN4220, S. aureus RN4220, Sensitive bacterium, read-out: minimal inhibitory concentration (MIC)
Outline: as §1

P. aeruginosa MSC17707 = experiment: MIC, agar plate dilution method, P. aeruginosa MSC17707; type: cell-based, Pseudomonas aeruginosa; settings: for minimal inhibitory concentration (MIC): P. aeruginosa MSC17707, AMK-resistant; for MIC: Pseudomonas aeruginosa, MSC17707, P. aeruginosa MSC17707, AMK-resistant, read-out: minimal inhibitory concentration (MIC)
Outline: as §1

P. aeruginosa PAO1 = experiment: MIC, agar plate dilution method, P. aeruginosa PAO1; type: cell-based, Pseudomonas aeruginosa; settings: for minimal inhibitory concentration (MIC): P. aeruginosa PAO1, Sensitive bacterium; for MIC: Pseudomonas aeruginosa, PAO1, P. aeruginosa PAO1, Sensitive bacterium, read-out: minimal inhibitory concentration (MIC)
Outline: as §1

S. marcescens TH-0447 = experiment: MIC, agar plate dilution method, S. marcescens TH-0447; type: cell-based, Serratia marcescens; settings: for minimal inhibitory concentration (MIC): S. marcescens TH-0447, AMK-resistant; for MIC: Serratia marcescens, TH0447, S. marcescens TH-0447, AMK-resistant, read-out: minimal inhibitory concentration (MIC)
Outline: as §1

S. aureus RN4220/pMS520 = experiment: MIC, agar plate dilution method, S. aureus RN4220/pMS520; type: cell-based, Staphylococcus aureus; settings: for minimal inhibitory concentration (MIC): S. aureus RN4220/pMS520, MRSA; for MIC: Staphylococcus aureus, MRSA, read-out: minimal inhibitory concentration (MIC), S. aureus RN4220/pMS520, MRSA
Outline: as §1

E. coli JM109/pMW218 = experiment: MIC, agar plate dilution method, E. coli JM109/pMW218; type: cell-based, Escherichia coli; settings: for minimal inhibitory concentration (MIC): E. coli JM109/pMW218, Sensitive bacterium; for MIC: Escherichia coli, JM109/PMW218, E. coli JM109/pMW218, Sensitive bacterium, read-out: minimal inhibitory concentration (MIC)
Outline: as §1

Structure (SMILES)	minimal inhibitory concentration (MIC) [1] [µg/mL]	minimal inhibitory concentration (MIC) (S. marcescens GN6944) [µg/mL]	minimal inhibitory concentration (MIC) (P. aeruginosa MSC01035) [µg/mL]	minimal inhibitory concentration (MIC) (E. faecium ATCC19434) [µg/mL]	minimal inhibitory concentration (MIC) [2] [µg/mL]	minimal inhibitory concentration (MIC) (P. aeruginosa PAO1/GN315) [µg/mL]	minimal inhibitory concentration (MIC) (S. aureus MF490) [µg/mL]	minimal inhibitory concentration (MIC) [3] [µg/mL]	minimal inhibitory concentration (MIC) (S. aureus RN4220) [µg/mL]	minimal inhibitory concentration (MIC) (P. aeruginosa MSC17707) [µg/mL]	minimal inhibitory concentration (MIC) (P. aeruginosa PAO1) [µg/mL]	minimal inhibitory concentration (MIC) (S. marcescens TH-0447) [µg/mL]	minimal inhibitory concentration (MIC) (S. aureus RN4220/pMS520) [µg/mL]	minimal inhibitory concentration (MIC) (E. coli JM109/pMW218) [µg/mL]	MIC [1] [µg/mL]	MIC (S. marcescens GN6944) [µg/mL]	MIC (P. aeruginosa MSC01035) [µg/mL]	MIC (E. faecium ATCC19434) [µg/mL]	MIC [2] [µg/mL]	MIC (P. aeruginosa PAO1/GN315) [µg/mL]	other results
CN[C@@H]1[C@@H](O[C@H]2O[C@H](CO)[C@@H](N)C[C@H]2O)O[C@H]2C[C@@H](N)[C@@H](O[C@@H]3[C@@H](N)C[C@@H](N)C[C@@H]3O)O[C@@H]2[C@@H]1O [Compound N5, 6,3″-dideoxy-5-epiapramycin]	2 (≈ 3.94 µM)	4 (≈ 7.88 µM)	8 (≈ 15.8 µM)	8 (≈ 15.8 µM)	2 (≈ 3.94 µM)	4 (≈ 7.88 µM)	4 (≈ 7.88 µM)	8 (≈ 15.8 µM)	2 (≈ 3.94 µM)	8 (≈ 15.8 µM)	4 (≈ 7.88 µM)	8 (≈ 15.8 µM)	2 (≈ 3.94 µM)	1 (≈ 1.97 µM)	–	–	–	–	–	–	–
CNC1C(O[C@H]2OC(CO)[C@@H](N)[C@H](N)C2O)O[C@H]2CC(N)[C@@H](O[C@@H]3C(N)C[C@@H](N)C(O)[C@H]3O)OC2C1O (stereo partly drawn) [Compound G8, 3″-amino-3″-deoxyapramycin]	–	–	–	–	–	–	–	–	–	–	–	–	–	–	4 (≈ 7.43 µM)	16 (≈ 29.7 µM)	16 (≈ 29.7 µM)	32 (≈ 59.4 µM)	4 (≈ 7.43 µM)	16 (≈ 29.7 µM)	MIC (S. aureus MF490): 32 µg/mL (≈ 59.4 µM); MIC [3]: 16 µg/mL (≈ 29.7 µM); MIC (S. aureus RN4220): 8 µg/mL (≈ 14.9 µM); MIC (P. aeruginosa MSC17707): 16 µg/mL (≈ 29.7 µM); MIC (P. aeruginosa PAO1): 8 µg/mL (≈ 14.9 µM); MIC (S. marcescens TH-0447): 16 µg/mL (≈ 29.7 µM); MIC (S. aureus RN4220/pMS520): 8 µg/mL (≈ 14.9 µM); MIC (E. coli JM109/pMW218): 2 µg/mL (≈ 3.71 µM)
CNC1C(OC2OC(CO)C(NC(=N)N)CC2O)OC2CC(N)C(OC3CC(O)C(N)CC3N)OC2C1O (stereo not drawn) [Compound U4-a, 4″-deamino-5,3″-dideoxy-4″-guanidinoapramycin]	1 (≈ 1.82 µM)	2 (≈ 3.64 µM)	8 (≈ 14.6 µM)	4 (≈ 7.28 µM)	0.5 (≈ 0.91 µM)	4 (≈ 7.28 µM)	4 (≈ 7.28 µM)	8 (≈ 14.6 µM)	1 (≈ 1.82 µM)	8 (≈ 14.6 µM)	4 (≈ 7.28 µM)	4 (≈ 7.28 µM)	1 (≈ 1.82 µM)	0.5 (≈ 0.91 µM)	–	–	–	–	–	–	–
CNC1C(O[C@H]2OC(CO)[C@@H](NC(=N)N)[C@H](O)C2O)O[C@H]2CC(N)[C@@H](O[C@@H]3C(N)C[C@@H](N)C[C@H]3O)OC2C1O (stereo partly drawn) [Compound S1-o, 4″-deamino-6-deoxy-5-epi-4″-guanidinoapramycin]	–	–	–	–	–	–	–	–	–	–	–	–	–	–	1 (≈ 1.77 µM)	2 (≈ 3.54 µM)	4 (≈ 7.07 µM)	8 (≈ 14.1 µM)	0.5 (≈ 0.884 µM)	4 (≈ 7.07 µM)	MIC (S. aureus MF490): 2 µg/mL (≈ 3.54 µM); MIC [3]: 4 µg/mL (≈ 7.07 µM); MIC (S. aureus RN4220): 1 µg/mL (≈ 1.77 µM); MIC (P. aeruginosa MSC17707): 4 µg/mL (≈ 7.07 µM); MIC (P. aeruginosa PAO1): 2 µg/mL (≈ 3.54 µM); MIC (S. marcescens TH-0447): 4 µg/mL (≈ 7.07 µM); MIC (S. aureus RN4220/pMS520): 1 µg/mL (≈ 1.77 µM); MIC (E. coli JM109/pMW218): 0.5 µg/mL (≈ 0.884 µM)
CNC1C(OC2OC(CO)C(NCC3(N)CCCC3)C(O)C2O)OC2CC(N)C(OC3C(N)CC(N)C(O)C3O)OC2C1O (stereo not drawn) [Compound A4-c, 4″-N-((1-aminocyclopentyl)methyl)apramycin]	1 (≈ 1.57 µM)	8 (≈ 12.6 µM)	16 (≈ 25.1 µM)	16 (≈ 25.1 µM)	1 (≈ 1.57 µM)	16 (≈ 25.1 µM)	16 (≈ 25.1 µM)	32 (≈ 50.3 µM)	4 (≈ 6.28 µM)	32 (≈ 50.3 µM)	16 (≈ 25.1 µM)	8 (≈ 12.6 µM)	4 (≈ 6.28 µM)	1 (≈ 1.57 µM)	–	–	–	–	–	–	–
CNC1C(O[C@H]2OC(CO)[C@@H](NCCCN)[C@H](O)C2O)O[C@H]2CC(N)[C@@H](O[C@H]3CC(O)[C@H](N)CC3N)OC2C1O (stereo partly drawn) [Compound S1-c, 4″-N-(3-aminopropyl)-5-deoxyapramycin]	–	–	–	–	–	–	–	–	–	–	–	–	–	–	1 (≈ 1.72 µM)	8 (≈ 13.8 µM)	8 (≈ 13.8 µM)	8 (≈ 13.8 µM)	1 (≈ 1.72 µM)	4 (≈ 6.89 µM)	MIC (S. aureus MF490): 4 µg/mL (≈ 6.89 µM); MIC [3]: 8 µg/mL (≈ 13.8 µM); MIC (S. aureus RN4220): 2 µg/mL (≈ 3.44 µM); MIC (P. aeruginosa MSC17707): 8 µg/mL (≈ 13.8 µM); MIC (P. aeruginosa PAO1): 4 µg/mL (≈ 6.89 µM); MIC (S. marcescens TH-0447): 8 µg/mL (≈ 13.8 µM); MIC (S. aureus RN4220/pMS520): 2 µg/mL (≈ 3.44 µM); MIC (E. coli JM109/pMW218): 1 µg/mL (≈ 1.72 µM)
